{"source": "the supplement of paper PMC10307832", "data": [{"compound": "C1=CC2=NC=CN=C2C=C1/C=C/3\\C(=O)NC(=O)S3 + CS(=O)(=O)CCNCc1ccc(-c2ccc3ncnc(Nc4ccc(OCc5cccc(F)c5)c(Cl)c4)c3c2)o1 [Lapatinib] (partner 2 µM)", "assay": "relative viability (nuclei count vs DMSO), 5 days (fraction); higher = more cells survive", "conditions": "first compound 0.02 µM", "procedure,_shortened": "(§1)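 Lung cancer cell lines in 1536-well plates were dosed by pin tool the day after seeding, either with one drug alone or with a fixed anchor-drug dose plus five library-drug doses (not always all listed) in √10 steps. After 5 days, cells were fixed and their nuclei stained in one step (final 0.05% Triton X-100, 1% formaldehyde, 1 ug/ml Hoechst), then counted on 4× images. Relative viability is the nuclei count in treated wells divided by that in vehicle wells. Values are medians of duplicate plates.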", "values": [{"cell line": "LU99A", "relative viability": 0.976}, {"cell line": "BEN", "relative viability": 0.624}, {"cell line": "HARA", "relative viability": 0.668}, {"cell line": "HCC-78", "relative viability": 0.701}, {"cell line": "NCI-H322M", "relative viability": 0.428}, {"cell line": "LCLC-97TM1", "relative viability": 0.751}, {"cell line": "NCI-H2009", "relative viability": 0.873}, {"cell line": "A-427", "relative viability": 1.03}, {"cell line": "NCI-H661", "relative viability": 0.46}, {"cell line": "NCI-H1734", "relative viability": 1.02}, {"cell line": "NCI-H460", "relative viability": 0.832}, {"cell line": "NCI-H2347", "relative viability": 0.886}, {"cell line": "SK-LU-1", "relative viability": 0.834}, {"cell line": "201T", "relative viability": 0.854}, {"cell line": "NCI-H1915", "relative viability": 1.01}, {"cell line": "HCC-827", "relative viability": 0.217}, {"cell line": "LXF-289", "relative viability": 0.829}, {"cell line": "NCI-H23", "relative viability": 0.887}, {"cell line": "NCI-H647", "relative viability": 1.06}, {"cell line": "CAL-12T", "relative viability": 0.512}, {"cell line": "NCI-H1651", "relative viability": 0.793}, {"cell line": "EPLC-272H", "relative viability": 0.895}, {"cell line": "NCI-H2228", "relative viability": 0.946}, {"cell line": "NCI-H1792", "relative viability": 0.948}, {"cell line": "NCI-H1355", "relative viability": 0.811}, {"cell line": "NCI-H3122", "relative viability": 1.09}, {"cell line": "NCI-H1437", "relative viability": 0.791}, {"cell line": "NCI-H1755", "relative viability": 0.926}, {"cell line": "NCI-H2023", "relative viability": 0.872}, {"cell line": "HCC-15", "relative viability": 0.84}, {"cell line": "PC-14", "relative viability": 0.326}, {"cell line": "EKVX", "relative viability": 0.215}]}, {"compound": "C1=CC2=NC=CN=C2C=C1/C=C/3\\C(=O)NC(=O)S3 + CS(=O)(=O)CCNCc1ccc(-c2ccc3ncnc(Nc4ccc(OCc5cccc(F)c5)c(Cl)c4)c3c2)o1 [Lapatinib] (partner 2 µM)", "assay": "relative viability (nuclei count vs DMSO), 5 days (fraction); higher = more cells survive", "conditions": "first compound 0.06325 µM", "procedure,_shortened": "as §1", "values": [{"cell line": "LU99A", "relative viability": 1.06}, {"cell line": "BEN", "relative viability": 0.754}, {"cell line": "HARA", "relative viability": 0.984}, {"cell line": "HCC-78", "relative viability": 0.729}, {"cell line": "NCI-H322M", "relative viability": 0.573}, {"cell line": "LCLC-97TM1", "relative viability": 1.12}, {"cell line": "NCI-H2009", "relative viability": 0.965}, {"cell line": "A-427", "relative viability": 1.04}, {"cell line": "NCI-H661", "relative viability": 0.495}, {"cell line": "NCI-H460", "relative viability": 1.15}, {"cell line": "NCI-H2347", "relative viability": 0.88}, {"cell line": "SK-LU-1", "relative viability": 0.977}, {"cell line": "201T", "relative viability": 1.02}, {"cell line": "NCI-H1915", "relative viability": 1.1}, {"cell line": "HCC-827", "relative viability": 0.247}, {"cell line": "LXF-289", "relative viability": 0.932}, {"cell line": "NCI-H23", "relative viability": 1.12}, {"cell line": "NCI-H647", "relative viability": 1.75}, {"cell line": "CAL-12T", "relative viability": 0.708}, {"cell line": "NCI-H1651", "relative viability": 0.899}, {"cell line": "EPLC-272H", "relative viability": 1.18}, {"cell line": "NCI-H2228", "relative viability": 1.15}, {"cell line": "NCI-H1792", "relative viability": 0.851}, {"cell line": "NCI-H1355", "relative viability": 0.929}, {"cell line": "NCI-H3122", "relative viability": 1.03}, {"cell line": "NCI-H1437", "relative viability": 0.825}, {"cell line": "NCI-H1755", "relative viability": 0.951}, {"cell line": "NCI-H2023", "relative viability": 0.735}, {"cell line": "HCC-15", "relative viability": 0.87}, {"cell line": "PC-14", "relative viability": 0.316}, {"cell line": "EKVX", "relative viability": 0.18}]}, {"compound": "C1=CC2=NC=CN=C2C=C1/C=C/3\\C(=O)NC(=O)S3 + CS(=O)(=O)CCNCc1ccc(-c2ccc3ncnc(Nc4ccc(OCc5cccc(F)c5)c(Cl)c4)c3c2)o1 [Lapatinib] (partner 2 µM)", "assay": "relative viability (nuclei count vs DMSO), 5 days (fraction); higher = more cells survive", "conditions": "first compound 0.2 µM", "procedure,_shortened": "as §1", "values": [{"cell line": "LU99A", "relative viability": 1.07}, {"cell line": "BEN", "relative viability": 0.817}, {"cell line": "HARA", "relative viability": 0.997}, {"cell line": "HCC-78", "relative viability": 0.91}, {"cell line": "NCI-H322M", "relative viability": 0.61}, {"cell line": "LCLC-97TM1", "relative viability": 1.73}, {"cell line": "NCI-H2009", "relative viability": 1.03}, {"cell line": "A-427", "relative viability": 1.07}, {"cell line": "NCI-H661", "relative viability": 0.464}, {"cell line": "NCI-H1734", "relative viability": 1.11}, {"cell line": "NCI-H460", "relative viability": 1.03}, {"cell line": "NCI-H2347", "relative viability": 1}, {"cell line": "SK-LU-1", "relative viability": 0.891}, {"cell line": "201T", "relative viability": 0.979}, {"cell line": "NCI-H1915", "relative viability": 1.02}, {"cell line": "HCC-827", "relative viability": 0.209}, {"cell line": "LXF-289", "relative viability": 0.883}, {"cell line": "NCI-H23", "relative viability": 1.07}, {"cell line": "NCI-H647", "relative viability": 1.15}, {"cell line": "CAL-12T", "relative viability": 0.659}, {"cell line": "NCI-H1651", "relative viability": 1.05}, {"cell line": "EPLC-272H", "relative viability": 1.11}, {"cell line": "NCI-H2228", "relative viability": 0.97}, {"cell line": "NCI-H1792", "relative viability": 0.839}, {"cell line": "NCI-H1355", "relative viability": 1.05}, {"cell line": "NCI-H3122", "relative viability": 1.04}, {"cell line": "NCI-H1437", "relative viability": 0.806}, {"cell line": "NCI-H1755", "relative viability": 1.04}, {"cell line": "NCI-H2023", "relative viability": 1.01}, {"cell line": "HCC-15", "relative viability": 0.881}, {"cell line": "PC-14", "relative viability": 0.284}, {"cell line": "EKVX", "relative viability": 0.251}]}, {"compound": "C1=CC2=NC=CN=C2C=C1/C=C/3\\C(=O)NC(=O)S3 + CS(=O)(=O)CCNCc1ccc(-c2ccc3ncnc(Nc4ccc(OCc5cccc(F)c5)c(Cl)c4)c3c2)o1 [Lapatinib] (partner 2 µM)", "assay": "relative viability (nuclei count vs DMSO), 5 days (fraction); higher = more cells survive", "conditions": "first compound 0.6325 µM", "procedure,_shortened": "as §1", "values": [{"cell line": "LU99A", "relative viability": 0.854}, {"cell line": "BEN", "relative viability": 0.608}, {"cell line": "HARA", "relative viability": 0.633}, {"cell line": "HCC-78", "relative viability": 0.554}, {"cell line": "NCI-H322M", "relative viability": 0.656}, {"cell line": "LCLC-97TM1", "relative viability": 0.817}, {"cell line": "NCI-H2009", "relative viability": 1.03}, {"cell line": "A-427", "relative viability": 0.994}, {"cell line": "NCI-H661", "relative viability": 0.45}, {"cell line": "NCI-H1734", "relative viability": 0.999}, {"cell line": "NCI-H460", "relative viability": 0.815}, {"cell line": "NCI-H2347", "relative viability": 0.79}, {"cell line": "SK-LU-1", "relative viability": 1.01}, {"cell line": "201T", "relative viability": 0.972}, {"cell line": "NCI-H1915", "relative viability": 0.928}, {"cell line": "HCC-827", "relative viability": 0.215}, {"cell line": "LXF-289", "relative viability": 0.857}, {"cell line": "NCI-H23", "relative viability": 1.15}, {"cell line": "NCI-H647", "relative viability": 0.957}, {"cell line": "CAL-12T", "relative viability": 0.629}, {"cell line": "NCI-H1651", "relative viability": 0.718}, {"cell line": "EPLC-272H", "relative viability": 0.916}, {"cell line": "NCI-H2228", "relative viability": 0.903}, {"cell line": "NCI-H1792", "relative viability": 0.953}, {"cell line": "NCI-H1355", "relative viability": 0.919}, {"cell line": "NCI-H3122", "relative viability": 0.988}, {"cell line": "NCI-H1437", "relative viability": 0.715}, {"cell line": "NCI-H1755", "relative viability": 0.988}, {"cell line": "NCI-H2023", "relative viability": 0.764}, {"cell line": "HCC-15", "relative viability": 0.792}, {"cell line": "PC-14", "relative viability": 0.348}, {"cell line": "EKVX", "relative viability": 0.207}]}, {"compound": "C1=CC2=NC=CN=C2C=C1/C=C/3\\C(=O)NC(=O)S3 + CS(=O)(=O)CCNCc1ccc(-c2ccc3ncnc(Nc4ccc(OCc5cccc(F)c5)c(Cl)c4)c3c2)o1 [Lapatinib] (partner 2 µM)", "assay": "relative viability (nuclei count vs DMSO), 5 days (fraction); higher = more cells survive", "conditions": "first compound 2 µM", "procedure,_shortened": "as §1", "values": [{"cell line": "LU99A", "relative viability": 0.645}, {"cell line": "BEN", "relative viability": 0.505}, {"cell line": "HARA", "relative viability": 0.31}, {"cell line": "HCC-78", "relative viability": 0.168}, {"cell line": "NCI-H322M", "relative viability": 0.368}, {"cell line": "LCLC-97TM1", "relative viability": 0.27}, {"cell line": "NCI-H2009", "relative viability": 0.802}, {"cell line": "A-427", "relative viability": 1.08}, {"cell line": "NCI-H661", "relative viability": 0.39}, {"cell line": "NCI-H1734", "relative viability": 0.756}, {"cell line": "NCI-H460", "relative viability": 0.689}, {"cell line": "NCI-H2347", "relative viability": 0.852}, {"cell line": "SK-LU-1", "relative viability": 0.693}, {"cell line": "201T", "relative viability": 0.8}, {"cell line": "NCI-H1915", "relative viability": 0.971}, {"cell line": "HCC-827", "relative viability": 0.233}, {"cell line": "LXF-289", "relative viability": 0.908}, {"cell line": "NCI-H23", "relative viability": 0.759}, {"cell line": "NCI-H647", "relative viability": 0.903}, {"cell line": "CAL-12T", "relative viability": 0.751}, {"cell line": "NCI-H1651", "relative viability": 0.685}, {"cell line": "EPLC-272H", "relative viability": 0.576}, {"cell line": "NCI-H2228", "relative viability": 0.932}, {"cell line": "NCI-H1792", "relative viability": 0.554}, {"cell line": "NCI-H1355", "relative viability": 0.766}, {"cell line": "NCI-H3122", "relative viability": 0.972}, {"cell line": "NCI-H1437", "relative viability": 0.572}, {"cell line": "NCI-H1755", "relative viability": 0.928}, {"cell line": "NCI-H2023", "relative viability": 0.466}, {"cell line": "HCC-15", "relative viability": 0.84}, {"cell line": "PC-14", "relative viability": 0.24}, {"cell line": "EKVX", "relative viability": 0.146}]}]}
